In patent US11771086B2, “Pest control composition including novel iminopyridine derivative” (priority 2012, dated 2023):
Where “and” joins values, the source holds several entries; their conditions need not be identical. Identical values can stand only once. Like-named read-outs stand apart in the source and are kept apart here.

Key:
[1] = tested on: Lissorhoptrus oryzophilus; test: Reference Test Example 17 Pest control test of Lissorhoptrus oryzophilus (soil drench, single agent); assay type: in vivo; details: throughput of 0.1 mg/seedling, adults, three days after the release
Excerpt: Two days after the treatment, five adults of Lissorhoptrus oryzophilus were each released thereto. […] Test in duplicate.

[2] = tested on: Plutella xylostella; test: whole plant or invertebrate; assay type: in vivo
Experimental: (§1) After an air drying process, second instar larvae were released thereto. […] The test was performed in duplicate.
(§2) Method for Judging Synergistic Effects

[3] = tested on: Laodelphax striatella; test: whole plant or invertebrate; assay type: in vivo
Experimental: as §1, §2

[4] = tested on: Laodelphax striatella; test: Reference Test Example 4 Pest control test of Laodelphax striatella (foliar treatment, single agent); assay type: in vivo; details: Laodelphax striatellus, 72 h
Excerpt: (§3) After an air drying process, second instar larvae were released thereto. […] Test in duplicate.

[5] = tested on: Rhizoctonia solani; test: Test Example 12 Test of control of rice sheath blight (Rhizoctonia solani); assay type: in vivo; details: single agent 50 ppm; foliar spray; six days after inoculation
[6] = tested on: Plutella xylostella; test: Reference Test Example 1 Pest control test of Plutella xylostella (foliar treatment, single agent); assay type: in vivo; details: Plutella xylostella, foliar, 72 h
Excerpt: as §3

[7] = tested on: Frankliniella occidentalis; test: Reference Test Example 9 Pest control test of Frankliniella occidentalis (foliar treatment, single agent); assay type: in vivo; details: 72 h
Experimental: After an air drying process, first instar larvae were released to the leaf disk. Thereafter, the larvae were left to stand in a thermostatic chamber (16 hours of light period-8 hours of dark period) at 25° C. […] Test in duplicate. Mortality of larvae (%)={number of dead larvae/(number of survived larvae+number of dead larvae)}×100

[8] = tested on: Aphis gossypii; test: whole plant or invertebrate; assay type: in vivo; details: Aphis gossypii
Experimental: The test was performed in duplicate.
as §2

[9] = tested on: Frankliniella occidentalis; test: whole plant or invertebrate; details: Frankliniella occidentalis
Experimental: After an air drying process, first instar larvae were released thereto. Thereafter, the larvae were left to stand in a thermostatic chamber (16 hours of light period-8 hours of dark period) at 25° C. […] The test was performed in duplicate. Mortality of larvae (%)={number of dead larvae/(number of survived larvae+number of dead larvae)}×100
(A: 100−(mortality of larvae or adults when treated only with Compound P212)
B: 100−(mortality of larvae or adults when treated with only the insecticide imidacloprid, dinotefuran, or acetamiprid))
as §2
When the mortality against Frankliniella occidentalis in the case of a mixture with another agent exceeded the theoretical value given by Colby's equation, a synergistic effect was judged to be present.

[10] = tested on: Nilaparvata lugens resistant population II; test: Reference Test Example 19 Pest control test of Nilaparvata lugens, resistant population II (soil drench); assay type: in vivo; details: for Insecticidal effects against Nilaparvata lugens (death rate %), Resistant population II: soil drench, six days
Experimental: (§4) Three days after the treatment, ten second instar larvae of Nilaparvata lugens, which had been collected outdoors and proliferated indoors, were each released to the rice seedling. […] Test in duplicate.
(§5) Furthermore, for comparison, the test against a species of Nilaparvata lugens which is highly susceptible to imidacloprid was performed by the same method as described above, and the results thereof are shown in Table 45. […] Meanwhile, the death rates of imidacloprid at 0.05 mg/seedling were (susceptible species) 100%, (resistant population I) 38% and (resistant population II) 69%, and the insecticidal effect thereof was also low even at a high dose. From the above results, it became obvious that Compound P212 and Compound 1-20 have high insecticidal effects even against Nilaparvata lugens resistance against imidacloprid.
(§6) Further, for the origin of test pests, bugs collected outdoors from the Kumamoto prefecture (I) in 2007 and from the Fukuoka prefecture (II) in 2005 as resistant population of Nilaparvata lugens, and bugs collected from the Kagoshima prefecture and then successively reared indoors for a long time as the imidacloprid susceptible population of Nilaparvata lugens were used.

[11] = tested on: Chilo suppressalis; assay type: in vivo; details: for Theoretical value by Colby's equation: Chilo suppressalis; for Mortality of single agent against Chilo suppressalis: soil irrigation, six days after release
Experimental: After standing for 3 days, second instar larvae were released thereto. […] The test was performed in duplicate.
as §2

[12] = tested on: Nilaparvata lugens; test: Reference Test Example 5 Pest control test of Nilaparvata lugens (foliar treatment, single agent); assay type: in vivo; details: 144 h
Excerpt: as §3

[13] = tested on: Trigonotylus caelestialium; test: Reference Test Example 10 Pest control test of Trigonotylus caelestialium (dipping treatment); assay type: in vivo; details: 72 h
Experimental: After an air drying process, the wheat seedling leaves and stems were placed into a glass tube, and two second instar larvae of Trigonotylus coelestialium were released to the same glass tube. After the larvae were released, the tube was lidded to leave the larvae to stand in a thermostatic chamber at 25° C. In order to supply water to the wheat during the test, water was given to the wheat from the bottom of the glass tube. […] Test in triplicate.

[14] = tested on: Spodoptera litura; test: Reference Test Example 2 Pest control test of Spodoptera litura (foliar treatment, single agent); assay type: in vivo; details: 72 h
Excerpt: After an air drying process, third instar larvae were released thereto. […] Test in duplicate.

[15] = tested on: Nilaparvata lugens resistant population I; test: Reference Test Example 19 Pest control test of Nilaparvata lugens, resistant population I (soil drench); assay type: in vivo; details: for Insecticidal effects against Nilaparvata lugens (death rate %), Resistant population I: soil drench, six days
Experimental: as §4, §5, §6

[16] = tested on: Aphis gossypii; test: Reference Test Example 3 Pest control test of Aphis gossypii (foliar treatment, single agent); assay type: in vivo; details: Aphis gossypii, foliar, 72 h
Experimental: After an air drying process, first instar larvae were released thereto. Thereafter, the larvae were left to stand in a thermostatic chamber (16 hours of light period-8 hours of dark period) at 25° C. […] Test in duplicate. Mortality (%)={number of dead larvae/(number of survived larvae+number of dead larvae)}×100

[17] = tested on: Oulema oryzae; test: Reference Test Example 12 Pest control test of Oulema oryzae (topical application); assay type: in vivo; details: throughput of 0.5 μg/head; adults; forty eight hours after the treatment
Experimental: 1 μL(/head) of a drug solution of the compound of Formula (I) prepared at a predetermined concentration with acetone was topically applied and treated to the back of adults collected outdoors by a micro syringe. After the drug treatment, the adults were transferred to rice seedlings and left to stand in a thermostatic chamber at 25° C. so as to obtain 5 heads per stem. […] Test in duplicate. Mortality of adults (%)={number of dead adults/(number of survived adults+number of dead adults)}×100

[18] = tested on: Laodelphax striatellus; test: Test Example 14 Test with Laodelphax striatellus by soil irrigation treatment (mixture with paddy herbicide); assay type: in vivo; details: five days after release
Experimental: After standing for three days, second instar larvae were released thereto. […] The test was performed in duplicate.

[19] = foliar, 72 h, read-out: Mortality of single agent against Frankliniella occidentalis

How did the mortality [1] turn out when O=C(N=c1ccccn1Cc1ccc(Cl)nc1)C(F)(F)F [Compound P212, N-[1-((6-chloropyridin-3-yl)methyl)pyridin-2(1H)-ylidene]-2,2,2-trifluoroacetamide] was run?
The mortality was no less than 80%.

What about the mortality at 1 ppm ([2]; Plutella xylostella, foliar, 72 h, read-out: Mortality of single agent against Plutella xylostella, single agent 1.0 ppm, cabbage leaf disk spray, three days) of the same compound?
Its mortality at 1 ppm is 40%.

And the mortality at 1.25 ppm ([2]; Plutella xylostella, foliar, 72 h, read-out: Mortality of single agent against Plutella xylostella, single agent 1.25 ppm, cabbage leaf disk spray, three days)?
The mortality at 1.25 ppm was 0%.

What about the mortality at 2 ppm ([2]; Plutella xylostella, foliar, 72 h, read-out: Mortality of single agent against Plutella xylostella, single agent 2.0 ppm, cabbage leaf disk spray, three days) of the same compound?
The mortality at 2 ppm was 60%.

And the “Theoretical value by Colby's equation” value ([2]; Plutella xylostella, single agent 1.0 ppm (other component 0))?
Its value is 40% and 30%.

What about the “Theoretical value by Colby's equation” value ([2]; Plutella xylostella, single agent 1.25 ppm (other component 0)) of the same compound?
The value was 0%.

What about the “Theoretical value by Colby's equation” value ([2]; Plutella xylostella, single agent 2.0 ppm (other component 0)) of the same compound?
The value was 60% and 50%.

And the “Mortality of single agent against Plutella xylostella” value ([2]; single agent 1.0 ppm, cabbage leaf disk spray, three days)?
The value was 30%.

And the “Mortality of single agent against Plutella xylostella” value ([2]; single agent 2.0 ppm, cabbage leaf disk spray, three days)?
The value was 50%.

And the “Theoretical value by Colby's equation” value ([3]; Laodelphax striatella foliar, single agent 0.625 ppm (other component 0))?
The value was 95%.

What about the mortality at 0.625 ppm ([3]; Laodelphax striatellus, foliar, 72 h, read-out: Mortality of single agent against Laodelphax striatella) of the same compound?
The mortality at 0.625 ppm was 95%.

What about the mortality at 100 ppm [4] of the same compound?
The mortality at 100 ppm was no less than 80%.

And the “Preventive value (Sheath blight test, lesion height)” value [5]?
Its value is 14 and 9.

And the mortality at 100 ppm [6]?
The mortality at 100 ppm was no less than 80%.

What about the mortality at 500 ppm [7] of the same compound?
The mortality at 500 ppm was no less than 80%.

What about the mortality at 0.313 ppm ([8]; foliar, 72 h, read-out: Mortality of single agent against Aphis gossypii) of the same compound?
The mortality at 0.313 ppm was 45%.

And the “Theoretical value by Colby's equation” value ([8]; single agent 0.313 ppm (other component 0))?
The value was 45%.

What about the mortality at 10 ppm [9, 19] of the same compound?
The mortality at 10 ppm was 69%.

What about the mortality at 20 ppm [9, 19] of the same compound?
The mortality at 20 ppm was 70%.

And the “Theoretical value by Colby's equation” value ([9]; single agent 10 ppm (other component 0))?
Its value is 69%.

And the “Theoretical value by Colby's equation” value ([9]; single agent 20 ppm (other component 0))?
Its value is 70%.

And the “death rates of larvae” value ([10]; resistant population II, 0.005 mg/seedling, six days after the release)?
Its value is 100%.

And the “Insecticidal effects against Nilaparvata lugens (death rate %), Resistant population II” value ([10]; throughput 0.005 mg/seedling)?
The value was 100%.

What about the “Insecticidal effects against Nilaparvata lugens (death rate %), Resistant population II” value ([10]; throughput 0.05 mg/seedling) of the same compound?
Its value is 100%.

What about the “Theoretical value by Colby's equation” value ([11]; single agent 0.002 mg/seedling (other component 0)) of the same compound?
Its value is 40%.

What about the “Theoretical value by Colby's equation” value ([11]; single agent 0.01 mg/seedling (other component 0)) of the same compound?
The value was 33%.

What about the “Mortality of single agent against Chilo suppressalis” value ([11]; single agent 0.002 mg/seedling) of the same compound?
Its value is 40%.

What about the “Mortality of single agent against Chilo suppressalis” value ([11]; single agent 0.01 mg/seedling) of the same compound?
The value was 33%.

And the mortality at 100 ppm [12]?
Its mortality at 100 ppm is no less than 80%.

What about the mortality at 50 ppm [13] of the same compound?
Its mortality at 50 ppm is no less than 80%.

What about the mortality at 500 ppm [14] of the same compound?
The mortality at 500 ppm was no less than 80%.

And the “death rates of larvae” value ([15]; resistant population I, 0.005 mg/seedling, six days after the release)?
The value was 95%.

What about the “Insecticidal effects against Nilaparvata lugens (death rate %), Resistant population I” value ([15]; throughput 0.005 mg/seedling) of the same compound?
The value was 95%.

What about the “Insecticidal effects against Nilaparvata lugens (death rate %), Resistant population I” value ([15]; throughput 0.05 mg/seedling) of the same compound?
The value was 100%.

And the mortality at 100 ppm [16]?
The mortality at 100 ppm was no less than 80%.

And the mortality [17]?
The mortality was no less than 80%.

And the “Mortality of larvae (Laodelphax striatellus)” value ([18]; single agent 0.005 mg/seedling)?
Its value is 0%.

And the “Mortality of larvae (Laodelphax striatellus)” value ([18]; single agent 0.01 mg/seedling)?
Its value is 100%.
